Values of other authors in patent US5516790A, “Synthesis and application of alkyl-substituted dibenzofurans as antitumorigenic agents” (Texas A&M University System Technology Licensing Office, priority 1994, dated 1996).
Like-named read-outs stand apart in the source and are kept apart here.

Experiments:
34-kDa protein = conditions: Biegel and Safe, 1990; cited from earlier work
AHH and EROD induction = conditions: previous studies; cited from earlier work
MDA-MB-231 cell line = conditions: cited from earlier work
[1] = in vivo; cited from earlier work

| SMILES | 17β-estradiol-induced secretion of the 34-kDa protein (34-kDa protein) | antagonist to the activities of TCDD (AHH and EROD induction) | secretion of the 34-, 52- and 160-kDa proteins (MDA-MB-231 cell line; TCDD plus 17β-estradiol) | secretion of the 34-, 52- and 160-kDa proteins (MDA-MB-231 cell line; compound alone) | hepatocarcinogenicity [1] |
| --- | --- | --- | --- | --- | --- |
| Cc1cc(Cl)cc2c1oc1cc(Cl)cc(Cl)c12 [MCDF, 6-methyl 1,3,8-trichlorodibenzofuran] | inhibits | antagonist | – | – | – |
| Clc1cc2c(cc1Cl)Oc1cc(Cl)c(Cl)cc1O2 [TCDD, 2,3,7,8-tetrachloridibenzo-p-dioxin] | – | – | did not affect | did not affect | so hepatocarcinogenic |
